Consider four molecules from publication PMC10060354, “Discovery of a small molecule ligand of FRS2 that inhibits invasion and tumor growth” (Cellular Oncology, 2022).

Series [1] deals with T1, GB1-FRS2-PTB (Homo sapiens, UniProt Q8WU20).
T1 construct: FRS2-PTB 11-140aa; 6xHis (N); made in house; host or cells: E. coli BL21 (DE3)
T1 sequence (Q8WU20 11-140): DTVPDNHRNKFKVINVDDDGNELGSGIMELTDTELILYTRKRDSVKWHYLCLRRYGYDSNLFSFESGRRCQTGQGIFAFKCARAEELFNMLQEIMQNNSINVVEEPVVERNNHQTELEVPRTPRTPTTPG
Description: NMR STD and WaterLOGSY ligand observation. The conditions noted are these: 25 µM GB1-FRS2-PTB, 500 µM ligand, 280 K. It is filed as binding. As to the method: STD and WaterLOGSY experiments were measured at 7 °C on a Bruker AvNEO 600 spectrometer equipped with a TCI cryoprobe. In the STD experiments saturation was achieved by applying a series of Gaussian-shaped pulses at a RF field strength of 54 Hz (max.) for 3 s at -0.5 ppm (-40 ppm for the reference experiment) and 512 scans were accumulated. The WaterLOGSY was measured with 256 scans and a mixing time of 1.5 s. A 7.5 ms Gaussian-shaped 180° pulse was used to control the water magnetization. For both experiments samples of 25 µM GB1-FRS2_PTB with a 20-fold excess of ligand (500 µM) were used or with the ligand alone for the control experiment.

A short description of series [2]: In vivo PK of 7 (30, 100, 200 mg/kg PO), plasma and liver exposure. The conditions noted are these: both sexes, ICR, mouse, plasma, 0.5 h after administration, read-out: plasma concentration reached. On the set-up: species or system ICR mice. As to the method:
In vivo PK studies were performed by Pharmacology Discovery Services Taiwan (New Taipei City, Taiwan). 7 (30, 100, and 200 mg/kg, PO) was further administered to groups of 2 male and 2 female (23 ± 3 g) satellite ICR mice in PK study; the plasma and liver samples were harvested at 0.5 h after administration. In addition, one additional group was dosed at 30 mg/kg and the plasma samples were harvested at 1 and 2 h(s) after the treatment. The body and liver weights were recorded. The exposure levels (ng/ml or ng/g) of 7 in plasma and liver samples were then determined by Liquid Chromatograph Tandem Mass Spectrometer (LC–MS/MS), and the plasma: liver ratios were calculated.

For series [3], the system named is SKOV3. Description: CellTiter-Glo 3D cell viability. It is filed as cell-based. The conditions noted are these: Homo sapiens, SK-OV-3, full growth medium, 48 h. The method, then: (§1) Cell viability was determined using CellTiter-Glo® 2D or 3D cell viability assays (#G9242, #G9682, Promega). 500 cells/25 µl were seeded in flat bottom (#781,091, Greiner bio-one) or U-low adhesion (#4516, Corning) 384-well plate, 24 h prior to treatment. Increasing concentrations of compounds are deposited on cells using a HP Digital Drug Dispenser with DMSO total volume normalization. After 48 h, the CellTiter-Glo® 2D or 3D reagent was added (volume/volume) following manufacturer’s instructions. Plates were incubated at RT (room temperature) under agitation for 30 min and luminescence representing the number of viable cells was quantified with a Cytation 3 imaging reader (BioTek®). Experiments were performed independently three times with three technical replicas each.
Background: In ATP-based viability assays light output follows the ATP content of the culture.

The test system of series [4] is AGS. Description: CellTiter-Glo 3D cell viability. The conditions noted are these: Homo sapiens, full growth medium, 48 h. It counts as cell-based. As to the method: as §1
The subject of series [5] is M059K. Description: CellTiter-Glo 3D cell viability. It counts as cell-based. The conditions noted are these: Homo sapiens, full growth medium, 48 h. As to the method:
as §1

In series [6] the test system is RT-112. Description: CellTiter-Glo 3D cell viability. The conditions noted are these: Homo sapiens, RT-112, 48 h. It is filed as cell-based. The method, then: as §1
Series [7] has as its system HCT116. The series is described as follows: CellTiter-Glo 3D cell viability. It is filed as cell-based. The conditions noted are these: Homo sapiens, HCT-116, full growth medium, 48 h. As to the method: as §1
Series [8] concerns DAOY. The series is described as follows: CellTiter-Glo 3D cell viability. It counts as cell-based. The conditions noted are these: Homo sapiens, full growth medium, 48 h. The method, then: as §1
Series [9] has as its target T2, FRS2_PTB (Homo sapiens, UniProt Q8WU20).
T2 construct: FRS2-PTB 11-140aa; 6xHis; made in house; host or cells: E. coli BL21 (DE3)
T2 sequence (Q8WU20 11-140): T1 sequence (Q8WU20 11-140)
Description: nano differential scanning fluorimetry (nanoDSF). The conditions noted are these: 500 μM ligand. It is filed as binding. As to the method: Assay establishment and pilot nanoDSF experiments were performed with a Tycho® system. Each experiment was performed by mixing the protein and ligand of interest at a 1:1 ratio and subsequent incubation for 15–30 min at room temperature. Controls of protein alone and ligand alone in identical buffer compositions as for the complex were measured accordingly. The temperature gradient ranged from 35 to 95 °C, and the heating rate was 30 °C/min. Inflection temperatures TI were calculated from the first derivative of the spectra obtained at the ratio of the signals at 350 nm to those at 330 nm. ΔTI of a complex was calculated as following: ΔTI,complex = TI,complex – TI,protein.
The in-built software version 1.1.5.668 (NanoTemper Technologies, Munich, Germany) and Microsoft Office Excel 365 (Microsoft Corp., Seattle, USA) was used for data analysis. Data was plotted with GraphPad Prism vers. 8.3.0 (GraphPad Software, San Diego, USA).
Purified FRS2_PTB or GB1_FRS2_PTB protein tagged with 6 × Histidine residues and the B1 immunoglobulin binding domain of the streptococcal protein G (GB1) were diluted in the protein buffer (100 mM sodium phosphate, 50 mM NaCl, 0.5 mM EDTA, 50 mM arginine, 1 mM TCEP, pH 7.0) to 30 μM, GB-1 to 40 μM. FGFR_PEP, compounds or paracetamol (PARA) as negative control were dissolved at 1 mM in the protein buffer supplemented with 10% DMSO. Compound and protein were mixed at 1:1 volume ratio yielding a final concentration of 15 μM and 20 μM for FRS2_PTB/GB1_FRS2_PTB and GB1, respectively, as well as 500 μM for FGFR_PEP or compounds. The mixture was incubated for 15 min. Each compound was measured in triplicates. Protein controls were measured in six replicates in the beginning. The quality of the screen was assessed by the Z-factor. nanoDSF validation studies were performed on a Prometheus® system in high sensitivity capillaries. Samples were heated with 1 °C/min from 20 to 95 °C. Each compound was measured in triplicates. GB1-FRS2_PTB and GB1 were diluted in the protein buffer (100 mM sodium phosphate, 50 mM NaCl, 0.5 mM EDTA, 50 mM arginine, 1 mM TCEP, pH 7.0) to 30 μM. Compounds 3.3, 3.4, 3.18 as well as the 3.18 analogues were dissolved in 100% DMSO at 50 or 100 mM and further diluted to 1 mM with a final DMSO-concentration of 100%. FGFR_PEP was dissolved at 1 mM in the protein buffer supplemented with 10% DMSO. Compound and protein were mixed at 1:1 volume ratio yielding final concentrations of 15 μM protein and 500 μM for the compounds. FGFR_PEP was measured against both GB1-FRS2_PTB and GB1, all other compounds only against GB1-FRS2_PTB. The mixture was incubated for 15 min before measurement. The data was analyzed for both the ratio of signals at 330 and 350 nm and at 350 nm alone. […]

SMILES strings stand for the structures. Values joined by “and” are separate entries in the source; they are usually repeats but may differ in a detail not shown here. Identical values can stand only once.

Regarding `O=C(O)c1c(Cl)cc(O)c2c1C1C=CCC1C(c1ccc(Cl)cc1)N2` (centres unmarked) [Compound 13], the “binding to the PTB domain by STD and WaterLOGSY (result in words)” value in series [1] is listed as “clearly demonstrated binding”.

Consider `O=[N+]([O-])c1c(Cl)cc(O)c2c1C1C=CCC1C(c1ccc(Cl)cc1)N2` (centres unmarked) [Compound 7], for which the concentration at 0.5 h in [2] is 10000 ng/mL and > 20 µM. The IC50 (in general, the point on the concentration scale where inhibition reaches its midpoint) in [3] is 9.46 µM; in [4], 3.35 µM; in series [5], 15.2 µM; in series [6] it was 12.3 µM; in [7] it was 4.56 µM; in series [8] it was 6.56 µM.

In the case of `COc1ncc(C(C)NC2CC(C)(C)NC(C)(C)C2)cc1Cl` (centres unmarked) [Compound 3.3], the “nanoDSF shift of the inflection point of the melting curve (ΔTm)” value in series [9] was approximately 1.5 °C.

On to `CC(C)C[C@@H](CO)NCc1cc(O)c2cc(F)ccc2n1` [Compound 3.14], for which, in series [9], the “nanoDSF shift of the inflection point of the melting curve (ΔTm)” value is more than 2.0 °C. Further, the “binding to the PTB domain by STD and WaterLOGSY (result in words)” value in series [1] is “clearly demonstrated binding”.
